Reference: US7678795B2, “Pyridazines as 11b-HSD1 inhibitors” (Hoffman-La Roche Inc., priority 2005, dated 2010)

Molecular target: T1, human 11beta-HSD1 (Homo sapiens, UniProt P28845)
T1 construct: made in house; host or cells: HEK293 cells (ATCC CRL-1573), transient transfection; microsomal fraction
Assay: Microsome assay (cortisone to cortisol conversion, ELISA-based cortisol detection)
Assay type: biochemical
Conditions: microsomes from HEK293 cells transiently expressing human 11beta-HSD1; Cortisone 50-200 nM, NADPH 1 mM; 60 min at 37° C.; read-out: 11-beta-HSD 1 IC50
Protocol: Transient Expression and Partial Purification:
The cDNA encoding the human 11beta-HSD1 protein was cloned into the expression vector pcDNA3 ([…]). This construct (for details see Alex Odermatt et al.; J Biol. Chem.,1999, Vol. 274, Issue 40, 28762-28770) was used to transiently express the protein in HEK293 cells (ATCC number: CRL-1573, described in Graham, F. L., Smiley, J., Russell, W. C., Nairn, R.; (1977)) using lipofectamine. 48 h after transfection cells were washed twice with ice-cold PBS (Phosphate buffered Saline). To 1 volume of cell suspension in PBS 2 volumes of ice-cold lysis buffer (50 mM Tris; pH7.5; 1 mM EDTA; 100 mM NaCl) were added. The cells were lysed by Potter-homogenization (20 strokes). The resulting homogenate was sonicated wit a tip sonicator (10% output; 2×30 sec.) and cleared by a low speed centrifugation (10 min×9000 g; 4° C.). […]
Microsomes isolated from HEK293 cells transiently expressing human 11beta-HSD1 (for details see above) were incubated in assay buffer (100 mM NaCl; 1 mM EDTA; 1 mM EGTA; 1 mM MgCl; 250 mM Sucrose; 20 mM Tris pH 7.4; Cortisone 50-200 nM and NADPH 1 mM) together with different concentrations of test substances. […] The amount of Cortisol produced in this assay was determined using a commercially available, ELISA-based Cortisol-detection kit (Distributed by Assay Design, Inc.). […]

T1 sequence (P28845 whole entry): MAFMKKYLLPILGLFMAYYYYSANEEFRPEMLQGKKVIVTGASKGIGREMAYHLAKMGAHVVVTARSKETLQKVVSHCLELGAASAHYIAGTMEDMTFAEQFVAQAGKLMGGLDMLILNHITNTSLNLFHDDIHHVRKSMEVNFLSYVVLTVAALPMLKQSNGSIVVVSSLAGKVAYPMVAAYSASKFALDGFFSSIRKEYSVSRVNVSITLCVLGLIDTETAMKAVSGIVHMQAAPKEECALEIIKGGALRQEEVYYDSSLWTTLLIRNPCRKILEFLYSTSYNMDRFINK

Cc1c(-c2cc3c(nn2)[C@@]2(C)CC[C@@H]3C2(C)C)cnn1-c1ccccc1 [Example 1, (1S,8R)-1,11,11-Trimethyl-5-(5-methyl-1-phenyl-1H-pyrazol-4-yl)-3,4-diaza-tricyclo[6.2.1.0^2,7]undeca-2(7),3,5-triene] gave an IC50 of 30 nM.
FC(F)(F)c1ccccc1-c1cc2c(nn1)CCCCCC2 [Example 41, 3-(2-Trifluoromethyl-phenyl)-5,6,7,8,9,10-hexahydro-cycloocta[c]pyridazine] showed an IC50 of 3 nM.
